Source: patent US12043600B2, “Microbiocidal compounds” (SYNGENTA CROP PROTECTION AG, priority 2018, dated 2024)

Legend:
[1] = system: Glomerella lagenarium (Colletotrichum lagenarium); assay: Glomerella lagenarium (Colletotrichum lagenarium)/Liquid Culture (Anthracnose); assay type: cell-based; details: Colletotrichum orbiculare, liquid culture, compared to untreated control
[2] = system: Blumeria graminis f. sp. tritici (Erysiphe graminis f. sp. tritici); assay: Blumeria graminis f. sp. tritici/Wheat/Leaf Disc Preventative (Powdery Mildew on Wheat); assay type: in vivo; details: foliar, wheat leaf disc preventative, compared to untreated control
Outline: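 Preventative leaf-disc test: percent disease control versus untreated leaf segments read 6-8 days post-application. Compound spray applied to wheat cv. Kanzler segments on agar one day before shaking infected plants over them; incubation at 20° C and 60% rh, 24 h darkness then 12 h light/12 h dark cycles.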

[3] = system: Monographella nivalis (Microdochium nivale); assay: Monographella nivalis (Microdochium nivale)/Liquid Culture (Foot Rot Cereals); assay type: cell-based; details: liquid culture, compared to untreated control
Outline: (§1)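 Liquid-culture format using potato dextrose broth inoculated directly with cryopreserved conidia, dosed with compound from a DMSO solution.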

[4] = system: Mycosphaerella arachidis (Cercospora arachidicola); assay: Mycosphaerella arachidis (Cercospora arachidicola)/Liquid Culture (Early Leaf Spot); assay type: cell-based; details: liquid culture, compared to untreated control
Outline: as §1

Plasmopara viticola = assay: whole plant or invertebrate; assay type: in vivo; details: foliar, read-out: control of Plasmopara viticola
[5] = system: Puccinia recondita f. sp. tritici; assay: Puccinia recondita f. sp. tritici/Wheat/Leaf Disc Curative (Brown Rust); assay type: in vivo; details: foliar, wheat leaf disc curative, compared to untreated control
Outline: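 Formulated compound, diluted in water, is applied to inoculated wheat cv. Kanzler leaf segments on agar one day post-inoculation (pre-incubation dark, 19° C, 75% rh). After 6-8 days at 19° C, 75% rh and 12 h/12 h light, activity is rated as percent disease control relative to untreated segments.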

[6] = system: Puccinia recondita f. sp. tritici; assay: Puccinia recondita f. sp. tritici/Wheat/Leaf Disc Preventative (Brown Rust); assay type: in vivo; details: foliar, 200 ppm, wheat leaf disc preventative, compared to untreated control, read-out: control of Puccinia recondita f. sp. tritici
[7] = system: Magnaporthe grisea (Pyricularia oryzae); assay: whole plant or invertebrate; assay type: in vivo; details: foliar, read-out: control of Magnaporthe grisea
[8] = system: Thanatephorus cucumeris (Rhizoctonia solani); assay: Thanatephorus cucumeris (Rhizoctonia solani)/Liquid Culture (Foot Rot, Damping-Off); assay type: cell-based; details: liquid culture, compared to untreated control
Experimental: Mycelia fragments of a newly grown liquid culture of the fungus are directly mixed into nutrient broth (PDB potato dextrose broth). After placing a (DMSO) solution of the test compounds into a microtiter plate (96-well format), the nutrient broth containing the fungal material is added.

[9] = system: Mycosphaerella graminicola (Septoria tritici); assay: Mycosphaerella graminicola (Septoria tritici)/Liquid Culture (Septoria Blotch); assay type: cell-based; details: Zymoseptoria tritici; 20 ppm; liquid culture; compared to untreated control
Outline: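 Results given as % disease control: test compound in DMSO was placed in wells first, then potato dextrose broth carrying cryostored fungal conidia was added.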

[10] = Photostability assay (Atlas Suntest); assay type: physicochemical; details: Suntest 750 W/m^2, spotted on microscope slides
Experimental: The testing method to measure the photostability data of each compound in table is D1 is as specifically described below. The objective of the photostability assay was to determine the stability of the individual test compounds in a strictly controlled and reproducible environment allowing a comparison of their photostability.
Method: Compounds were dissolved in methanol (HPLC grade) to give 1 g/L stock solutions. Compound stock solution (2 μl) was spotted onto microscope slides in a 3D printed holder and put into the Atlas Suntest. The spectral output power of the Suntest was set to 750 W/m^2, which is considered typical of the daily maximum (noon) irradiance level on a very bright British Summer day. At specific time points slides were removed from the Suntest and placed in 4D vials. Wash solvent made up of 50:40:10 H2O:MeCN:THF (1 mL) is then added to the vials and whirlimixed. The resulting solution is then subsampled to an HPLC vial to be analysed. A Waters UPLC system with Photodiode Array was used with a Waters reverse phase column (BEH C18, 100×2.1 mm×1.7 μm) and acetonitrile (HPLC grade) acidified water (0.2% formic acid) mobile phase at a flow rate of 0.6 mL/min. Peak detection was at the optimum wavelength and peak areas were used for quantification
Initial and subsequent measurements of peak area attributable to the test compound were used to provide a % parent remaining at 3 hours.

[11] = system: Botryotinia fuckeliana (Botrytis cinerea); assay: Botryotinia fuckeliana (Botrytis cinerea)/Liquid Culture (Gray Mould); assay type: cell-based; details: liquid culture, compared to untreated control
Experimental: Conidia of the fungus from cryogenic storage are directly mixed into nutrient broth (Vogels broth). After placing a (DMSO) solution of test compound into a microtiter plate (96-well format), the nutrient broth containing the fungal spores is added.

[12] = system: Phaeosphaeria nodorum (Septoria nodorum); assay: Phaeosphaeria nodorum (Septoria nodorum)/Wheat/Leaf Disc Preventative (Glume Blotch); assay type: in vivo; details: Parastagonospora nodorum, foliar, wheat leaf disc preventative, compared to untreated control
Outline: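 Preventative test: compound spray first, then spore inoculation after 2 days on cv. Kanzler wheat leaf segments. Incubation in a climate cabinet at 20 °C and 75% rh under a 12 h light/12 h dark cycle. Activity rated as % control relative to untreated discs at 5–7 days post-application.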

Phytophthora infestans = assay: whole plant or invertebrate; assay type: in vivo; details: in Solanum lycopersicum, foliar, read-out: control of Phytophthora infestans
Alternaria solani = assay: Alternaria solani/Tomato/Leaf Disc (Early Blight); assay type: in vivo; details: foliar, tomato leaf disc, compared to untreated control
Outline: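 Protective leaf-disc test: compound sprayed onto tomato cv. Baby disks, spore inoculation following after 2 days. Disks kept at 80% rh, 12/12 h light/dark, 23° C. day and 21° C. night; activity read as percent disease control relative to untreated checks 5-7 days post-application.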

Phakopsora pachyrhizi = assay: Phakopsora pachyrhizi/Soybean/Preventative (Soybean Rust); assay type: in vivo; details: 288 h, Phakopsora pachyrhizi (Soybean rust)
Pyrenophora teres = assay: Pyrenophora teres/Barley/Leaf Disc Preventative (Net Blotch); assay type: in vivo; details: foliar, 200 ppm, barley leaf disc preventative, compared to untreated control, read-out: control of Pyrenophora teres
Outline: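 Preventative leaf-disc test: inoculation with fungal spores took place 2 days after spraying segments of barley cv. Hasso, placed on agar, with water-diluted formulated compound. Read-out is % disease control per compound.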

SMILES | inhibition of growth at 20 ppm [1] [%] | pest or weed control at 200 ppm [2] [%] | inhibition of growth at 20 ppm [3] [%] | inhibition of growth at 20 ppm [4] [%] | pest or weed control at 200 ppm (Plasmopara viticola) [%] | pest or weed control at 200 ppm [7] [%] | inhibition of growth at 20 ppm [8] [%] | inhibition of growth at 20 ppm [9] [%] | % Parent Remaining @ 3 hrs [10] [%] | inhibition of growth at 20 ppm [11] [%] | pest or weed control at 200 ppm [12] [%] | pest or weed control at 200 ppm (Phytophthora infestans) [%] | melting point [°C] | pest or weed control at 200 ppm (Alternaria solani) [%] | pest or weed control at 200 ppm (Pyrenophora teres) [%] | further results
CO/C=C(\Oc1cc(-n2ccc(C(C)C)n2)c(F)cc1C)C(=O)OC [Compound E-41, methyl (Z)-2-[4-fluoro-5-(3-isopropylpyrazol-1-yl)-2-methyl-phenoxy]-3-methoxy-prop-2-enoate] | ≥ 80 | ≥ 80 | ≥ 80 | ≥ 80 | ≥ 80 | ≥ 80 | ≥ 80 | ≥ 80 | 28 | – | – | – | – | – | – | pest or weed control at 200 ppm [5]: ≥ 80%; pest or weed control at 200 ppm [6]: ≥ 80%
CO/C=C(\Oc1cc(-n2ccc(CC(C)C)n2)ccc1C)C(=O)OC [Compound E-90, methyl (Z)-2-[5-(3-isobutylpyrazol-1-yl)-2-methyl-phenoxy]-3-methoxy-prop-2-enoate] | ≥ 80 | ≥ 80 | ≥ 80 | ≥ 80 | ≥ 80 | ≥ 80 | – | ≥ 80 | 42 | ≥ 80 | ≥ 80 | ≥ 80 | 76 to 80 | – | – | –
CO/C=C(\Oc1cc(-n2ccc(C(F)(F)F)n2)ccc1C)C(=O)OC [Compound E-105, methyl (Z)-3-methoxy-2-[2-methyl-5-[3-(trifluoromethyl)pyrazol-1-yl]phenoxy]prop-2-enoate] | ≥ 80 | ≥ 80 | ≥ 80 | ≥ 80 | ≥ 80 | ≥ 80 | – | ≥ 80 | 74 | ≥ 80 | ≥ 80 | – | 154 to 156 | ≥ 80 | ≥ 80 | pest or weed control at 0.6 ppm (Phakopsora pachyrhizi; 0.6 ppm): 0%; pest or weed control at 2 ppm (Phakopsora pachyrhizi; 2 ppm): 0%; pest or weed control at 6 ppm (Phakopsora pachyrhizi; 6 ppm): 20%; pest or weed control at 20 ppm (Phakopsora pachyrhizi; 20 ppm): 95%; pest or weed control at 60 ppm (Phakopsora pachyrhizi; 60 ppm): 100%; pest or weed control at 200 ppm (Phakopsora pachyrhizi; 200 ppm, read-out: control (%)): 100%
CO/C=C(\Oc1cc(-n2ccc(C3CC3)n2)ccc1C)C(=O)OC [Compound E-101, methyl (Z)-2-[5-(3-cyclopropylpyrazol-1-yl)-2-methyl-phenoxy]-3-methoxy-prop-2-enoate] | ≥ 80 | ≥ 80 | ≥ 80 | ≥ 80 | ≥ 80 | – | ≥ 80 | ≥ 80 | 38 | ≥ 80 | ≥ 80 | ≥ 80 | 115 to 118 | – | – | –
CO/C=C(\Oc1cc(-n2ccc(C3CCC3)n2)ccc1C)C(=O)OC [Compound E-88, methyl (Z)-2-[5-(3-cyclobutylpyrazol-1-yl)-2-methyl-phenoxy]-3-methoxy-prop-2-enoate] | ≥ 80 | ≥ 80 | ≥ 80 | ≥ 80 | ≥ 80 | ≥ 80 | – | ≥ 80 | 34 | ≥ 80 | ≥ 80 | ≥ 80 | 91 to 94 | ≥ 80 | – | –
CO/C=C(\Oc1cc(-n2ccc(OC(C)C)n2)ccc1C)C(=O)OC [Compound E-70, methyl (Z)-2-[5-(3-isopropoxypyrazol-1-yl)-2-methyl-phenoxy]-3-methoxy-prop-2-enoate] | ≥ 80 | ≥ 80 | ≥ 80 | ≥ 80 | ≥ 80 | ≥ 80 | – | ≥ 80 | 25 | – | ≥ 80 | ≥ 80 | 94 to 97 | ≥ 80 | ≥ 80 | –
